Where two headings read alike, the source gives them in different places.
Experiments:
AKT1 WT = target: T1, AKT1 WT (Homo sapiens, UniProt P31749); test: Live cell AKT1 WT target engagement by NanoBRET competitive probe displacement in HEK293 cells; format: binding; conditions: 2 h at 37° C., read-out: AKT1 WT IC50
T1 construct: expressed in transfected cells; host or cells: HEK293

AKT2 = target: T2, AKT2 (Homo sapiens, UniProt P31751); test: Live cell AKT2 target engagement by NanoBRET competitive probe displacement in HEK293 cells; format: binding; conditions: 2 h at 37° C., read-out: AKT2 IC50
T2 construct: expressed in transfected cells; host or cells: HEK293

[1] = NanoBRET live cell target engagement, HEK293 cells
[2] = NanoBRET competitive probe displacement, live HEK293 cells

T2 sequence (P31751 whole entry): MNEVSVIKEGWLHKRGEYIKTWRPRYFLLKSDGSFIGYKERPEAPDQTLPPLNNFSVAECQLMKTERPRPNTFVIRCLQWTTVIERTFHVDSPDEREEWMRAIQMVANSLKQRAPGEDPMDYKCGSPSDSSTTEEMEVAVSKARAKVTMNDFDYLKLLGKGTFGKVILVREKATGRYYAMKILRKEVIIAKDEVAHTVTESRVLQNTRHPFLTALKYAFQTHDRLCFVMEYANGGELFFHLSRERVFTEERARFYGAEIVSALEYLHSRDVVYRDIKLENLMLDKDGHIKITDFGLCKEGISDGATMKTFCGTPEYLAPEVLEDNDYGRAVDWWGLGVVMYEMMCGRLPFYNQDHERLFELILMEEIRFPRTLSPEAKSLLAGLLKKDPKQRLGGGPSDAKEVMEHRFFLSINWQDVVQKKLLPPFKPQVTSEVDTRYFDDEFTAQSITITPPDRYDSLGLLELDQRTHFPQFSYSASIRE
T1 sequence (P31749 whole entry): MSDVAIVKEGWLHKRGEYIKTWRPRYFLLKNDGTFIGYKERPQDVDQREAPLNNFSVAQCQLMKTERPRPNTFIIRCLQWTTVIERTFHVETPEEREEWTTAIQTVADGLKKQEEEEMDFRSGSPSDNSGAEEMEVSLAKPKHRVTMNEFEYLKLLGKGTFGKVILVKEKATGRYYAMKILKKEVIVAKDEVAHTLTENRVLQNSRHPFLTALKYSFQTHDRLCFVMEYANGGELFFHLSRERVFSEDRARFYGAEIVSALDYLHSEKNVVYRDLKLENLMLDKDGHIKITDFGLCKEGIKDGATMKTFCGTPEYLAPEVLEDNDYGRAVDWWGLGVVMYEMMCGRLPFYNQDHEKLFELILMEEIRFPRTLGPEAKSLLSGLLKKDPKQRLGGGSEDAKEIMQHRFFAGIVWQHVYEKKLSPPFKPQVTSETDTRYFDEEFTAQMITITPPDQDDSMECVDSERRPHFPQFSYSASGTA

SMILES | IC50 (AKT1 WT; [1]) [nM] | IC50 (AKT2; [1]) [nM] | IC50 (AKT1 WT; [2]) [nM] | IC50 (AKT2; [2]) [nM]
Nc1ncccc1-c1nc2ccc(-n3cccn3)nc2n1-c1ccc2c(c1)CC[C@@H]2n1cc(C2CCO2)nn1 (stereo partly drawn) [Compound 353] | 25 | 1270 |  | 
Nc1ncccc1-c1nc2ccc(-n3cccn3)nc2n1-c1ccc2c(c1)CC[C@@H]2n1cc(C2CCO2)nn1 (stereo partly drawn) [Compound 354] | 39.8 | 900 |  | 
Nc1ncccc1-c1nc2ccc(-n3cccn3)nc2n1-c1ccc2c(c1)CC[C@@H]2NC(=O)[C@H]1CCO1 [Compound 372] | > 1000 | > 10000 |  | 
Nc1ncccc1-c1nc2ccc(-n3cccn3)nc2n1-c1ccc2c(c1)CC[C@@H]2NC(=O)[C@@H]1CCO1 [Compound 373] | 704 | 9910 |  | 
Cc1csc(-c2ccc3nc(-c4cccnc4N)n(-c4ccc5c(c4)CC[C@@H]5NC(=O)c4ccn(C)n4)c3n2)n1 [Compound 374, (S)—N-(5-(2-(2-aminopyridin-3-yl)-5-(4-methylthiazol-2-yl)-3H-imidazo[4,5-b]pyridin-3-yl)-2,3-dihydro-1H-inden-1-yl)-1-methyl-1H-pyrazole-3-carboxamide] | 27.8 | 389 |  | 
Cc1cc(C(=O)N[C@H]2CCc3cc(-n4c(-c5cccnc5N)nc5ccc(-n6cccn6)nc54)ccc32)sn1 [Compound 375] | 7.52 | 68.9 |  | 
Nc1ncccc1-c1nc2ccc(-n3cccn3)nc2n1-c1ccc2c(c1)CC[C@@H]2NC(=O)c1cnc(C(F)F)s1 [Compound 376] | 8.07 | 151 |  | 
COc1cc(C(=O)N[C@H]2CCc3cc(-n4c(-c5cccnc5N)nc5ccc(-n6cccn6)nc54)ccc32)cnn1 [Compound 377] | 2.9 | 22.2 |  | 
COc1nccc(C(=O)N[C@H]2CCc3cc(-n4c(-c5cccnc5N)nc5ccc(-n6nccn6)nc54)ccc32)c1C [Compound 380] | 13.9 | 312 |  | 
Nc1ncccc1-c1nc2ccc(-n3nccn3)nc2n1-c1ccc2c(c1)CC[C@@H]2NC(=O)c1cc(F)c2[nH]ncc2c1 [Compound 383] | 12.8 | 214 |  | 
Cn1nc(F)cc1C(=O)N[C@H]1CCc2cc(-n3c(-c4cccnc4N)nc4ccc(-n5cccn5)nc43)ccc21 [Compound 396] |  |  | 14.7 | 250
Cc1cc(C(F)F)ncc1C(=O)N[C@H]1CCc2cc(-n3c(-c4cccnc4N)nc4ccc(-n5nccn5)nc43)ccc21 [Compound 397] |  |  | 16.5 | 1440
Cc1cnc2ccc(C(=O)N[C@H]3CCc4cc(-n5c(-c6cccnc6N)nc6ccc(-n7nccn7)nc65)ccc43)cn12 [Compound 398] |  |  | 17.8 | 1090
Cc1ccc(C(=O)N[C@H]2CCc3cc(-n4c(-c5ccccc5)nc5ccc(-n6cccn6)nc54)ccc32)cn1 [Compound 400] |  |  | 14.4 | 2100
Cc1ccc(C(=O)N[C@H]2CCc3cc(-n4c(-c5cccnc5N)nc5ccc(-c6nc(C(F)F)cs6)nc54)ccc32)cn1 [Compound 403] |  |  | 6.13 | 20.1
C#Cc1ccc2nc(-c3cccnc3N)n(-c3ccc4c(c3)CC[C@@H]4NC(=O)c3ccc(C(F)F)nc3)c2n1 [Compound 404] |  |  | 33.7 | 2820
CC#Cc1ccc2nc(-c3cccnc3N)n(-c3ccc4c(c3)CC[C@@H]4NC(=O)c3ccc(C(F)F)nc3)c2n1 [Compound 405] |  |  | 46.2 | 1580

SMILES | IC50 (AKT1 WT; [1]) [nM] | IC50 (AKT2; [1]) [nM] | IC50 (AKT1 WT; [2]) [nM] | IC50 (AKT2; [2]) [nM]
Nc1ncccc1-c1nc2ccc(C#CC3CC3)nc2n1-c1ccc2c(c1)CC[C@@H]2NC(=O)c1ccc(C(F)F)nc1 [Compound 406] |  |  | 20.4 | 903
CN(C)CC#Cc1ccc2nc(-c3cccnc3N)n(-c3ccc4c(c3)CC[C@@H]4NC(=O)c3ccc(C(F)F)nc3)c2n1 [Compound 407] |  |  | 421 | 3550
Nc1ncccc1-c1nc2ccc(C#CC3COC3)nc2n1-c1ccc2c(c1)CC[C@@H]2NC(=O)c1ccc(C(F)F)nc1 [Compound 408] |  |  | 91.1 | 2300
COCC#Cc1ccc2nc(-c3cccnc3N)n(-c3ccc4c(c3)CC[C@@H]4NC(=O)c3ccc(C(F)F)nc3)c2n1 [Compound 409] |  |  | 36 | 1290
COCc1cc(C(=O)N[C@H]2CCc3cc(-n4c(-c5cccnc5N)nc5ccc(-n6cccn6)nc54)ccc32)ccc1O [Compound 410, (S)—N-(5-(2-(2-aminopyridin-3-yl)-5-(1H-pyrazol-1-yl)-3H-imidazo[4,5-b]pyridin-3-yl)-2,3-dihydro-1H-inden-1-yl)-4-hydroxy-3-(methoxymethyl)benzamide] |  |  | 7.43 | 57.6
CN1CC(C#Cc2ccc3nc(-c4cccnc4N)n(-c4ccc5c(c4)CC[C@@H]5NC(=O)c4ccc(C(F)F)nc4)c3n2)C1 [Compound 411, (S)—N-(5-(2-(2-aminopyridin-3-yl)-5-((1-methylazetidin-3-yl)ethynyl)-3H-imidazo[4,5-b]pyridin-3-yl)-2,3-dihydro-1H-inden-1-yl)-6-(difluoromethyl)nicotinamide] |  |  | 976 | > 10000
CCC#Cc1ccc2nc(-c3cccnc3N)n(-c3ccc4c(c3)CC[C@@H]4NC(=O)c3ccc(C(F)F)nc3)c2n1 [Compound 412] |  |  | 26.4 | 686
Nc1ncccc1-c1nc2ccc(-n3nccn3)nc2n1-c1ccc2c(c1)CC[C@@H]2NC(=O)c1ccns1 [Compound 413] |  |  | 21.7 | 1470
CN(C)C(=O)c1cc(C(=O)N[C@H]2CCc3cc(-n4c(-c5cccnc5N)nc5ccc(-n6cccn6)nc54)ccc32)ccc1O [Compound 414] |  |  | 26.1 | 562
Nc1ncccc1-c1nc2ccc(-n3cccn3)nc2n1-c1ccc2c(c1)CC[C@@H]2NC(=O)c1cc(C2CC2)c(O)c(C(F)(F)F)c1 [Compound 415] |  |  | 2.96 | 70
Cc1cc(C(=O)N[C@H]2CCc3cc(-n4c(-c5cccnc5N)nc5ccc(-n6cccn6)nc54)ccc32)cc(C(F)(F)F)c1O [Compound 416] |  |  | 1.43 | 34
Cc1ccc(C(=O)N[C@H]2CCc3cc(-n4c(-c5cccnc5N)nc5ccc(-n6cnc(C)n6)nc54)ccc32)cn1 [Compound 417, (S)—N-(5-(2-(2-aminopyridin-3-yl)-5-(3-methyl-1H-1,2,4-triazol-1-yl)-3H-imidazo[4,5-b]pyridin-3-yl)-2,3-dihydro-1H-inden-1-yl)-6-methylnicotinamide] |  |  | 19.6 | 561
Cc1ccc(C(=O)N[C@H]2CCc3cc(-n4c(-c5cccnc5N)nc5ccc(-n6ncnc6C)nc54)ccc32)cn1 [Compound 418, (S)—N-(5-(2-(2-aminopyridin-3-yl)-5-(5-methyl-1H-1,2,4-triazol-1-yl)-3H-imidazo[4,5-b]pyridin-3-yl)-2,3-dihydro-1H-inden-1-yl)-6-methylnicotinamide] |  |  | 76 | 2680
Cc1ccc(C(=O)N[C@H]2CCc3cc(-n4c(-c5cccnc5N)nc5ccc(-n6cnc(C7CC7)n6)nc54)ccc32)cn1 [Compound 419] |  |  | 35.9 | 540
Cc1ccc(C(=O)N[C@H]2CCc3cc(-n4c(-c5cccnc5N)nc5ccc(-n6ncnc6C6CC6)nc54)ccc32)cn1 [Compound 420] |  |  | 336 | 3100
Nc1ncccc1-c1nc2ccc(-c3ccn(C(F)F)n3)nc2n1-c1ccc2c(c1)CC[C@@H]2NC(=O)c1ccc(C(F)(F)F)nc1 [Compound 421] |  |  | 3.52 | 37.9

From patent US12624034B2, “Non-covalent modifiers of AKT1 and uses thereof” (Terremoto Biosciences, Inc., priority 2023, dated 2026)
